SMILES strings stand for the structures.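 Step 1: Grow cells in 96-well plates. Step 2: Expose to compound for 48 hours at 5 concentrations. Step 3: Interpolate endpoints linearly; if unreached, use highest concentration. Definition used: TGI = concentration required for complete inhibition of growth.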

Test systems include MOLT-4 leukemia; SF-539 CNS; KM12 colon; CAKI-1 renal; HOP-62 NSCLC; PC-3 prostate; HCT-116 colon; NCI/ADR-RES ovarian; K-562 leukemia; IGROV1 ovarian; CCRF-CEM leukemia; HOP-92 NSCLC.
What all share (experiment): DTP human tumour cell line panel, 48 h

Regarding `COc1ccc(C2NC(N)=C(C#N)C3=C2C(C)CCC3)cc1OC` (stereo not drawn), the total growth inhibition concentration (TGI) in the assay with MOLT-4 leukemia is over 100 µM; with SF-539 CNS, over 100 µM; in the assay on KM12 colon, over 100 µM; with CAKI-1 renal it was over 100 µM; with HOP-62 NSCLC, 75.7 µM; with PC-3 prostate it was over 100 µM. The TGI in the assay with HCT-116 colon, in the assay on NCI/ADR-RES ovarian, in the assay with K-562 leukemia, with IGROV1 ovarian and in the assay on CCRF-CEM leukemia was over 100 µM each time.

As for `CC(C)=C=CP(=O)(O)c1ccccc1`, the TGI in the assay with SF-539 CNS, with KM12 colon, in the assay with CAKI-1 renal, in the assay with HOP-62 NSCLC, in the assay with PC-3 prostate and with HCT-116 colon was over 100 µM each time. Moreover, the total growth inhibition concentration (TGI) in the assay with NCI/ADR-RES ovarian, in the assay with K-562 leukemia, with HOP-92 NSCLC and with IGROV1 ovarian was over 100 µM throughout.

`COc1ccc(C2=NN(c3nsc4ccccc34)C(=O)CC2)cc1`: the concentration for total growth inhibition (TGI) with MOLT-4 leukemia, with SF-539 CNS, in the assay with KM12 colon, in the assay with HOP-62 NSCLC, in the assay on HCT-116 colon and with K-562 leukemia was over 100 µM each time. Besides, the TGI with HOP-92 NSCLC, in the assay with IGROV1 ovarian and with CCRF-CEM leukemia was over 100 µM each time.

As to `COc1cc2nc(-c3cccs3)nc(N3C(c4cc(OC)c(OC)c(OC)c4)=NNC(=O)c4ccccc43)c2cc1OC`, the concentration for total growth inhibition (TGI) is over 100 µM in the assay with MOLT-4 leukemia; 44.6 µM in the assay on SF-539 CNS; over 100 µM with KM12 colon; over 100 µM in the assay with CAKI-1 renal; over 100 µM with HOP-62 NSCLC; over 100 µM with PC-3 prostate. Moreover, the total growth inhibition concentration (TGI) was over 100 µM in the assay with HCT-116 colon; 9.25 µM in the assay on NCI/ADR-RES ovarian; over 100 µM with K-562 leukemia; over 100 µM with HOP-92 NSCLC; over 100 µM in the assay on IGROV1 ovarian.

Consider `CCOC(=O)CN1C(=O)C(=O)N(c2ccc(OC)c3ccccc23)C1=O`, for which the TGI with MOLT-4 leukemia, with SF-539 CNS, with KM12 colon, in the assay with CAKI-1 renal, in the assay on HOP-62 NSCLC and in the assay with PC-3 prostate was over 100 µM in each case. For the same compound, the concentration for total growth inhibition (TGI) in the assay on HCT-116 colon, with NCI/ADR-RES ovarian, with K-562 leukemia and in the assay with CCRF-CEM leukemia was over 100 µM throughout.

Turning to `CC(C)N1[C@@H]2CCCC[C@H]2N(C(C)C)[P+]1=O`, the concentration for total growth inhibition (TGI) in the assay with MOLT-4 leukemia, in the assay with SF-539 CNS, in the assay on KM12 colon, in the assay on CAKI-1 renal, with HOP-62 NSCLC and in the assay on HCT-116 colon was over 100 µM throughout. For the same compound, the TGI in the assay with NCI/ADR-RES ovarian, in the assay on K-562 leukemia, in the assay with HOP-92 NSCLC and in the assay on CCRF-CEM leukemia was over 100 µM in each case.

In the case of `O=[N+]([O-])c1ccc(Nc2cccc3c2[nH]c2c(-c4ccccc4)nccc23)c([N+](=O)[O-])c1`, the TGI in the assay with MOLT-4 leukemia, in the assay with SF-539 CNS, in the assay with KM12 colon, in the assay with HOP-62 NSCLC, in the assay with HCT-116 colon and with NCI/ADR-RES ovarian was over 100 µM each time. Moreover, the TGI with K-562 leukemia, in the assay on HOP-92 NSCLC, with IGROV1 ovarian and in the assay on CCRF-CEM leukemia was over 100 µM in each case.

For the compound `Cc1ccc(S(=O)(=O)N/N=C\c2c3ccccc3[n+](C)c3ccccc23)cc1`, the concentration for total growth inhibition (TGI) in the assay with MOLT-4 leukemia is 53.3 µM; in the assay on SF-539 CNS, 54 µM; with KM12 colon it was over 100 µM; with CAKI-1 renal, over 100 µM; in the assay on HOP-62 NSCLC, over 100 µM; with HCT-116 colon, over 100 µM. The total growth inhibition concentration (TGI) was 52.7 µM in the assay on K-562 leukemia, 73.2 µM in the assay with HOP-92 NSCLC, over 100 µM in the assay on IGROV1 ovarian and 44.2 µM in the assay with CCRF-CEM leukemia.

As for `CC(=O)c1c(O)cc(O)c(-c2c(C)cc(O)c3c2C(=O)c2cccc(O)c2C3=O)c1O`, the concentration for total growth inhibition (TGI) came out at 38.5 µM with MOLT-4 leukemia; 30.3 µM with SF-539 CNS; 33.5 µM in the assay on KM12 colon; 40.5 µM in the assay with HOP-62 NSCLC; 30.6 µM with PC-3 prostate; 30 µM with HCT-116 colon. In addition, the TGI in the assay on NCI/ADR-RES ovarian came to 42.2 µM; in the assay with K-562 leukemia it was 62.6 µM; with HOP-92 NSCLC, 26.1 µM; in the assay on IGROV1 ovarian it was 29.8 µM.

As to `O=[N+]([O-])c1ccc2nc(-c3ccc(Cl)cc3)[nH]c2c1`, the total growth inhibition concentration (TGI) with MOLT-4 leukemia was over 100 µM; with SF-539 CNS, 39.6 µM; in the assay on CAKI-1 renal it was 93.9 µM; in the assay on HOP-62 NSCLC, 40.1 µM; with PC-3 prostate, 63.6 µM; in the assay with HCT-116 colon it was 32 µM. Further, the total growth inhibition concentration (TGI) in the assay on NCI/ADR-RES ovarian amounted to 57.6 µM; with HOP-92 NSCLC, 64.2 µM; with IGROV1 ovarian, 89.5 µM.

Turning to `CCOC(=O)Cc1cc(=O)[nH]c(-n2[nH]c(C)c(CCO)c2=O)n1`, the TGI in the assay on SF-539 CNS, in the assay on KM12 colon, with CAKI-1 renal, in the assay with HOP-62 NSCLC, in the assay with PC-3 prostate and in the assay with HCT-116 colon was over 100 µM in each case. Further, the concentration for total growth inhibition (TGI) in the assay with NCI/ADR-RES ovarian, with K-562 leukemia, in the assay on IGROV1 ovarian and with CCRF-CEM leukemia was over 100 µM in each case.

Turning to `O=S(=O)(O)c1cc(N=[N+]([O-])c2ccc(N=Nc3ccccc3)cc2S(=O)(=O)O)ccc1/C=C/c1ccc(N=[N+]([O-])c2ccc(N=Nc3ccccc3)cc2S(=O)(=O)O)cc1S(=O)(=O)O`, the TGI in the assay with MOLT-4 leukemia was over 100 µM; in the assay on SF-539 CNS, over 31.6 µM; with KM12 colon it was over 100 µM; with HOP-62 NSCLC it was over 100 µM; with HCT-116 colon, over 100 µM; with NCI/ADR-RES ovarian, over 100 µM. The TGI in the assay on K-562 leukemia, in the assay with HOP-92 NSCLC, in the assay with IGROV1 ovarian and in the assay on CCRF-CEM leukemia was over 100 µM each time.

Turning to `CCOC(=O)C1CCCN1C(=O)c1ccccc1Cl` (stereo not drawn), the TGI with MOLT-4 leukemia, with SF-539 CNS, in the assay with KM12 colon, in the assay on CAKI-1 renal, in the assay with HOP-62 NSCLC and with HCT-116 colon was over 100 µM in each case. Also, the TGI with NCI/ADR-RES ovarian, in the assay with K-562 leukemia, in the assay on HOP-92 NSCLC, with IGROV1 ovarian and with CCRF-CEM leukemia was over 100 µM each time.

Regarding `Cc1ccc([N+]2=NC(c3ccccc3)=NN(c3ccccc3)C2)cc1`, the concentration for total growth inhibition (TGI) in the assay on MOLT-4 leukemia, in the assay with KM12 colon, in the assay with HOP-62 NSCLC, in the assay with HCT-116 colon, with K-562 leukemia and in the assay on IGROV1 ovarian was over 100 µM in each case. In the assay with CCRF-CEM leukemia, this compound gave a total growth inhibition concentration (TGI) of 79.9 µM.

One may read the TGI as the concentration at which net growth stops. Read a high TGI as lower sensitivity of the cells.

(Values after PubChem BioAssay (NCI).)
